From paper PMC5355811 (Nature Communications, 2017) come the findings set out here.

Holding throughout (type): cell-based
For experiment [1], the system named is Ba/F3 cells of EGFR-T790M/del19. As to the kind of experiment: Drug sensitivity screening at 100 nM, Ba/F3 EGFR-T790M/del19. The conditions noted are these: 72 h, DMSO = 100; for Relative cell viability (% of DMSO control): 100 nM; for viability at 0.1 µM: Mus musculus, BaF3, 72 h, 100 nM inhibitor, mean of three independent experiments (Fig. 1a data), read-out: Relative cell viability (ratio to DMSO control), del19/T790M. The procedure:
(§1) After the incubation, cell viability was measured using CellTiter-Glo assay. The relative cell viability was calculated as a ratio of each value to that of the DMSO control.

The subject of experiment [2] is Ba/F3 cells of EGFR-C797S/T790M/del19. As to the kind of experiment: Drug sensitivity screening at 100 nM, Ba/F3 EGFR-C797S/T790M/del19. The conditions noted are these: Mus musculus, BaF3, 72 h, 100 nM inhibitor, 72 h, DMSO = 100; mean of three independent experiments (Fig. 1a data). The procedure:
as §1

Experiment [3] deals with Ba/F3 cells of EGFR-del19. Nature of the experiment: Drug sensitivity screening at 100 nM, Ba/F3 EGFR-del19. The conditions noted are these: 72 h, DMSO = 100; for Relative cell viability (% of DMSO control) in del19 Ba/F3 cells: 100 nM; for viability at 0.1 µM: Mus musculus, BaF3, 72 h, 100 nM inhibitor, mean of three independent experiments (Fig. 1a data), read-out: Relative cell viability (ratio to DMSO control), del19. The procedure: as §1

With `CS(=O)(=O)N1CCN(Cc2cc3nc(-c4cccc5[nH]ncc45)nc(N4CCOCC4)c3s2)CC1` [GDC0941], the “Relative cell viability (% of DMSO control)” value in experiment [1] (experiment 1) is 45.3105; in experiment [1] (experiment 2), 67.5344; in experiment [1] (experiment 3), 51.7458. For the same compound, the viability at 0.1 µM in experiment [1] was 54.9%; in experiment [2], 66.1%; in experiment [3], 40.1%. Further, the figures for the “Relative cell viability (% of DMSO control) in del19 Ba/F3 cells” value in experiment [3] (experiment 1), in experiment [3] (experiment 2) and in experiment [3] (experiment 3) were 34.6965, 39.6485 and 45.9129, respectively.

For `C[C@H]1Oc2cc(cnc2N)-c2c(nn(C)c2C#N)CN(C)C(=O)c2ccc(F)cc21` [Lorlatinib, lorlatinib], the entries for the “Relative cell viability (% of DMSO control)” value in experiment [1] (experiment 1), in experiment [1] (experiment 2) and in experiment [1] (experiment 3) were 93.1744, 112.187 and 104.505, respectively. In addition, the results for the viability at 0.1 µM in experiment [1], in experiment [2] and in experiment [3] were 103%, 126% and 106%, respectively. Besides, the “Relative cell viability (% of DMSO control) in del19 Ba/F3 cells” value in experiment [3] (experiment 1) was found to be 99.5381; in experiment [3] (experiment 2), 109.489; in experiment [3] (experiment 3), 108.837.

Turning to `Cc1[nH]c(/C=C2\C(=O)Nc3ccc(S(=O)(=O)Cc4c(Cl)cccc4Cl)cc32)c(C)c1C(=O)N1CCC[C@@H]1CN1CCCC1` [PHA665752], the results for the viability at 0.1 µM in experiment [1], in experiment [2] and in experiment [3] were 110%, 136% and 114%, respectively. The “Relative cell viability (% of DMSO control) in del19 Ba/F3 cells” value in experiment [3] (experiment 1) turned out to be 109.731; in experiment [3] (experiment 2) it was 119.895; in experiment [3] (experiment 3), 113.452.

Regarding `CO[C@H]1C[C@@H]2CC[C@@H](C)[C@@](O)(O2)C(=O)C(=O)N2CCCC[C@H]2C(=O)O[C@H]([C@H](C)C[C@@H]2CC[C@@H](O)[C@H](OC)C2)CC(=O)[C@H](C)/C=C(\C)[C@@H](O)[C@@H](OC)C(=O)[C@H](C)C[C@H](C)/C=C/C=C/C=C/1C` [Rapamycin, rapamycin], the “Relative cell viability (% of DMSO control)” value in experiment [1] (experiment 1) came out at 30.0228; in experiment [1] (experiment 2), 36.7261; in experiment [1] (experiment 3) it was 31.8573. For the same compound, the viability at 0.1 µM came out at 32.9% in experiment [1], 27.6% in experiment [2] and 34.3% in experiment [3]. For the same compound, the figures for the “Relative cell viability (% of DMSO control) in del19 Ba/F3 cells” value in experiment [3] (experiment 1), in experiment [3] (experiment 2) and in experiment [3] (experiment 3) were 26.4621, 39.8271 and 36.4731, respectively.

With `COc1cc(N2CCC(N3CCN(C)CC3)CC2)ccc1Nc1ncc(Cl)c(Nc2ccccc2S(=O)(=O)C(C)C)n1` [TAE684], the results for the viability at 0.1 µM in experiment [1], in experiment [2] and in experiment [3] were 98.1%, 110% and 105%, respectively.

As to `CC(=O)Nc1cccc(-n2c(=O)n(C3CC3)c(=O)c3c(Nc4ccc(I)cc4F)n(C)c(=O)c(C)c32)c1` [Trametinib, trametinib], the “Relative cell viability (% of DMSO control)” value stood at 11.0855 in experiment [1] (experiment 1), 11.5677 in experiment [1] (experiment 2) and 12.1404 in experiment [1] (experiment 3). For the same compound, the viability at 0.1 µM worked out at 11.6% in experiment [1], 44.2% in experiment [2] and 0.872% in experiment [3]. The results for the “Relative cell viability (% of DMSO control) in del19 Ba/F3 cells” value in experiment [3] (experiment 1), in experiment [3] (experiment 2) and in experiment [3] (experiment 3) were 0.7444, 0.954 and 0.9176, respectively.

As to `COc1cc2c(Nc3ccc(Br)cc3F)ncnc2cc1OCC1CCN(C)CC1` [Vandetanib, vandetanib], the “Relative cell viability (% of DMSO control)” value in experiment [1] (experiment 1) worked out at 95.2444; in experiment [1] (experiment 2), 114.653; in experiment [1] (experiment 3) it was 98.1331. Further, the viability at 0.1 µM in experiment [1] was found to be 103%; in experiment [2] it was 130%; in experiment [3], 1.62%. For the same compound, the “Relative cell viability (% of DMSO control) in del19 Ba/F3 cells” value in experiment [3] (experiment 1) is given as 1.287; in experiment [3] (experiment 2) it was 1.585; in experiment [3] (experiment 3) it was 1.984.

Regarding `CCCS(=O)(=O)Nc1ccc(F)c(C(=O)c2c[nH]c3ncc(-c4ccc(Cl)cc4)cc23)c1F` [Vemurafenib, vemurafenib], the results for the “Relative cell viability (% of DMSO control)” value in experiment [1] (experiment 1), in experiment [1] (experiment 2) and in experiment [1] (experiment 3) were 92.0888, 107.966 and 104.772, respectively. Besides, the viability at 0.1 µM in experiment [1] was 102%; in experiment [2] it was 96.8%; in experiment [3], 108%. Also, the “Relative cell viability (% of DMSO control) in del19 Ba/F3 cells” value in experiment [3] (experiment 1) is recorded as 102.039; in experiment [3] (experiment 2), 116.573; in experiment [3] (experiment 3) it was 106.065.

On to `COc1cc2nccc(Oc3ccc(NC(=O)C4(C(=O)Nc5ccc(F)cc5)CC4)cc3)c2cc1OC` [XL184], for which the “Relative cell viability (% of DMSO control)” value is 91.4569 in experiment [1] (experiment 1), 111.038 in experiment [1] (experiment 2) and 110.02 in experiment [1] (experiment 3). Further, the viability at 0.1 µM in experiment [1] came to 104%; in experiment [2], 137%; in experiment [3], 110%. In addition, the “Relative cell viability (% of DMSO control) in del19 Ba/F3 cells” value in experiment [3] (experiment 1) was determined as 97.6803; in experiment [3] (experiment 2), 120.752; in experiment [3] (experiment 3) it was 111.655.

For `CC(=O)O[C@H]1C(=O)[C@@]2(C)[C@H]([C@H](OC(=O)c3ccccc3)[C@]3(O)C[C@H](OC(=O)[C@H](O)[C@@H](NC(=O)c4ccccc4)c4ccccc4)C(C)=C1C3(C)C)[C@]1(OC(C)=O)CO[C@@H]1C[C@@H]2O` [paclitaxel], the “Relative cell viability (% of DMSO control)” value in experiment [1] (experiment 1) is listed as 72.6289; in experiment [1] (experiment 2), 87.6485; in experiment [1] (experiment 3) it was 88.6746. In addition, the viability at 0.1 µM in experiment [1] is 83%; in experiment [2], 95.1%; in experiment [3], 51.9%. The results for the “Relative cell viability (% of DMSO control) in del19 Ba/F3 cells” value in experiment [3] (experiment 1), in experiment [3] (experiment 2) and in experiment [3] (experiment 3) were 51.8383, 52.2569 and 51.6533, respectively.
